Measurements as given in patent publication US4032544A, “3-Cyano-4-hydroxy coumarin derivatives” (Beecham Group Limited, priority 1974, dated 1977).

System: PCA response
Test: rat Passive Cutaneous Anaphylaxis Test (PCA test)
Format: in vivo, rat (male Wistar)
Conditions: sc, subcutaneous, sodium salt
Procedure: The compounds prepared in the preceding examples were tested in the rat Passive Cutaneous Anaphylaxis Test (PCA test), described below. They were administered as their sodium salts either in pH 7.2 phosphate buffer (for soluble salts) or as a suspension in 1% methyl cellulose (for insoluble salts).
Male Wistar rats of 250-300 g, were injected intraperitoneally with 0.5 ml. of Bordatella pertussis vaccine (containing 4× 10^10 dead organism per ml) and subcutaneously with 0.5 ml. of an emulsion of 100 mg. of ovalbumin in 2 ml. of saline and 3 ml. of incomplete Freunds' adjuvant. Rats were bled by cardiac puncture on day 18, the blood was pooled and separated and serum stored at -20° and thawed only once before use.
0.1 ml. of each of six twofold serial dilutions of the serum in 0.9% saline were injected intradermally into separate sites on the shaved dorsal surface of 250-350 g. Male Wistar rats. 72 hours later the animals were challenged by i.v. injection of 0.3 ml. of 1% ovalbumin mixed with 0.1 ml. of a 5% solution of pontamine sky blue dye both in isotonic saline buffered with pH 7.2 Sorenson buffer (P.B.S.). The rats were killed after 20 minutes and the diameter of the blue wheals at the antibody injection sites were measured. The starting dilution of the serum was adjusted so that there was no response, after challenge, at the site of injection of the highest dilution and a maximum response at the two or three lowest dilutions.
Amounts of the compounds were administered to rats by subcutaneous injection, into the nucal region, of a solution of the compound in P.B.S. or as a suspension in 1% methyl cellulose, each amount a test group of six animals at a specified time prior to intravenous challenge with ovalbumin.
% Inhibition of P.C.A.= 100 (1 -a/b)
For those compounds having insoluble sodium salts, the salts were isolated by reaction of the free cyano compound with 2.5N sodium hydroxide and the filtered sodium salt washed free of alkali with water. The dried salts were then administered as a suspension in 1% methyl cellulose.

[1] = 0 h, 0 mins. prior to challenge
[2] = 0.5 h, 30 mins. prior to challenge
[3] = 10 min, 10 mins. prior to challenge
[4] = 1 h, 60 mins. prior to challenge

Row | SMILES | inhibition in vivo at 25 mg/kg [1] [%] | inhibition in vivo at 100 mg/kg [1] [%] | inhibition in vivo at 25 mg/kg [2] [%] | inhibition in vivo at 100 mg/kg [2] [%] | inhibition in vivo at 5 mg/kg [3] [%] | inhibition in vivo at 10 mg/kg [3] [%] | inhibition in vivo at 20 mg/kg [3] [%] | other results
1 | N#CC1C(=O)c2ccccc2C1=O [Example 1, 2-Cyano indan-1,3-dione] | 43 | 64 | 8 | 16 | – | – | – | –
2 | Cc1ccc2c(c1)C(=O)C(C#N)C2=O (stereo not drawn) [Example 2, 2-Cyano-5-methyl indan-1,3-dione] | 45 | 76 | 15 | 35 | – | – | – | –
3 | Cc1cc2c(cc1C)C(=O)C(C#N)C2=O [Example 3, 2-Cyano-5,6-dimethyl indan-1,3-dione] | – | – | – | – | 56 | 77 | 92 | inhibition in vivo at 2.5 mg/kg [3]: 46%
4 | Cc1cccc2c1C(=O)C(C#N)C2=O (stereo not drawn) [Example 4, 2-Cyano-4-methyl indan-1,3-dione] | – | – | – | – | 21 | 25 | 75 | inhibition in vivo at 40 mg/kg [3]: 83%
5 | COc1cccc2c1C(=O)C(C#N)C2=O (stereo not drawn) [Example 5, 2-Cyano-4-methoxy indan-1,3-dione] | – | – | – | – | 28 | 16 | 57 | inhibition in vivo at 40 mg/kg [3]: 81%
6 | N#CC1C(=O)c2cc3ccccc3cc2C1=O [Example 6, 5,6-Benzo-2-cyano indan-1,3-dione] | – | – | 27 | 30 | – | – | – | inhibition in vivo at 25 mg/kg [3]: 88%; inhibition in vivo at 100 mg/kg [3]: 70%
7 | N#CC1C(=O)c2ccc(Cl)cc2C1=O (stereo not drawn) [Example 7, 5-Chloro-2-cyano indan-1,3-dione] | – | – | 15 | – | – | 33 | – | inhibition in vivo at 25 mg/kg [3]: 76%; inhibition in vivo at 10 mg/kg [2]: 21%
8 | CCc1cc2c(cc1CC)C(=O)C(C#N)C2=O [Example 8, 2-Cyano-5,6-diethyl indan-1,3-dione] | – | – | – | – | 74 | 90 | 78 | inhibition in vivo at 40 mg/kg [3]: 64%
9 | N#Cc1c(O)c2ccccc2oc1=O [Example 9, 3-Cyano-4-hydroxycoumarin] | 64 | 87 | 30 | 40 | – | – | – | –
10 | CCc1cc2c(O)c(C#N)c(=O)oc2cc1C [Example 10, 3-Cyano-6-ethyl-4-hydroxy-7-methyl coumarin] | – | – | 17 | – | – | 71 | – | inhibition in vivo at 25 mg/kg [3]: 67%; inhibition in vivo at 10 mg/kg [2]: 24%
11 | Cc1cc2oc(=O)c(C#N)c(O)c2cc1C [Example 11, 3-Cyano-6,7-dimethyl-4-hydroxycoumarin monohydrate] | 51 | 72 | 16 | 11 | – | – | – | –
12 | CCc1cc2oc(=O)c(C#N)c(O)c2cc1CC [Example 12, 3-Cyano-6,7-diethyl-4-hydroxy coumarin] | – | – | – | – | 72 | 68 | 93 | inhibition in vivo at 2.5 mg/kg [3]: 64%
13 | Cc1ccc2oc(=O)c(C#N)c(O)c2c1 [Example 13, 3-Cyano-4-hydroxy-6-methyl coumarin] | 14 | 40 | 21 | 22 | – | – | – | –
14 | Cc1ccc2c(O)c(C#N)c(=O)oc2c1 [Example 14, 3-Cyano-4-hydroxy-7-methyl coumarin] | 45 | 74 | 14 | 18 | – | – | – | –
15 | CCc1ccc2c(O)c(C#N)c(=O)oc2c1 [Example 15, 3-Cyano-7-ethyl-4-hydroxy coumarin] | 34 | 64 | 27 | 17 | – | – | – | –
16 | CCOc1ccc2c(O)c(C#N)c(=O)oc2c1 [Example 16, 3-Cyano-7-ethyloxy-4-hydroxy coumarin monohydrate] | – | – | – | – | 59 | 71 | 86 | inhibition in vivo at 40 mg/kg [3]: 73%
17 | N#Cc1c(O)c2cc3ccccc3cc2oc1=O [Example 17, 3-Cyano-4-hydroxy-2-oxo-2H-naphtho[2,3-b] pyran] | 9 | 15 | – | – | – | – | – | inhibition in vivo at 25 mg/kg [4]: 23%; inhibition in vivo at 100 mg/kg [4]: 18%
18 | N#Cc1c(O)c2cc3c(cc2oc1=O)CCCC3 [Example 18, 3-Cyano-4-hydroxy-2-oxo-6,7,8,9-tetrahydro-2H-naphtho [2,3-b] pyran] | – | – | – | – | – | – | – | inhibition in vivo at 1 mg/kg (10 min, 1 mg/kg, 10 mins. prior to challenge): 2%; inhibition in vivo at 2 mg/kg (10 min, 2 mg/kg, 10 mins. prior to challenge): 22%; inhibition in vivo at 4 mg/kg (10 min, 4 mg/kg, 10 mins. prior to challenge): 52%; inhibition in vivo at 8 mg/kg (10 min, 8 mg/kg, 10 mins. prior to challenge): 67%
19 | Cc1cccc2c(O)c(C#N)c(=O)oc12 [Example 19, 3-Cyano-4-hydroxy-8-methylcoumarin monohydrate] | 48 | 67 | 23 | 35 | – | – | – | –
20 | COc1ccc2oc(=O)c(C#N)c(O)c2c1 [Example 20, 3-Cyano-4-hydroxy-6-methyloxycoumarin] | 54 | 72 | 29 | 36 | – | – | – | –
21 | Cc1ccc2c(O)c(C#N)c(=O)oc2c1C [Example 21, 3-Cyano-7,8-dimethyl-4-hydroxycoumarin monohydrate] | – | – | – | – | 39 | 65 | 97 | inhibition in vivo at 2.5 mg/kg [3]: 20%
